Results taken from patent publication US20140005163A1 (NOVARTIS AG, priority 2010, published 2014).
pIC50: −log10 of the molar value. Converted amounts (≈) assume the structure as drawn.

Legend:
[1] = Solubility at pH 6.8; type: physicochemical; settings: pH 6.8, aqueous buffer, thermodynamic from solid; read-out: solubility
In short: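 Following the procedure of Zhou et al. (2007), compound solubility was determined at pH 6.8.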

[2] = Cellular CaCo2 permeability assay from apical to basal (A-B); type: in vitro ADME; settings: human, Caco-2, read-out: Pe A-B (permeability)
Description: The permeability in 10^−6 cm/s of compounds of formula (I) have been confirmed for selected example using a cellular CaCo2 permeability assay from apical to basal (A-B): […]

[3] = biological target: T1, PI3K gamma (Homo sapiens, UniProt P48736); assay: PI3K gamma kinase assay (Kinase-Glo luminescence); type: biochemical
T1 construct: His tag (C); made in house; host or cells: baculovirus (pVL1393); Tn5 or TiniPro insect cells; construct from Roger Williams lab, MRC LMB
In short: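 PI3Kγ (150 nM) reaction run 120 min at room temperature with phosphatidylinositol substrate (10 μg/mL) and ATP (1 μM) in Tris pH 7.5 buffer containing MgCl2, NaCl, CHAPS and DTT. Remaining ATP detected by Kinase-Glo luminescence; 8 concentrations per compound, IC50 from 4-parameter curve fitting.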

[4] = biological target: T2, PI3K alpha (Homo sapiens, UniProt P42336); assay: PI3K alpha kinase assay (Kinase-Glo luminescence); type: biochemical
T2 construct: p85(iSH2) fusion partner (see partner chain) (N); His tag (C); made in house; host or cells: baculovirus; Tn5 (Trichoplusia ni) or TiniPro insect cells
In short: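 Luminescent ATP-depletion assay (Kinase-Glo) with 10 nM PI3Kα and 10 μg/mL phosphatidylinositol as lipid substrate at 1 μM ATP. Incubation lasts 60 min at room temperature.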

T2 sequence (P42336 with tags, fused parts or gaps limits assumed): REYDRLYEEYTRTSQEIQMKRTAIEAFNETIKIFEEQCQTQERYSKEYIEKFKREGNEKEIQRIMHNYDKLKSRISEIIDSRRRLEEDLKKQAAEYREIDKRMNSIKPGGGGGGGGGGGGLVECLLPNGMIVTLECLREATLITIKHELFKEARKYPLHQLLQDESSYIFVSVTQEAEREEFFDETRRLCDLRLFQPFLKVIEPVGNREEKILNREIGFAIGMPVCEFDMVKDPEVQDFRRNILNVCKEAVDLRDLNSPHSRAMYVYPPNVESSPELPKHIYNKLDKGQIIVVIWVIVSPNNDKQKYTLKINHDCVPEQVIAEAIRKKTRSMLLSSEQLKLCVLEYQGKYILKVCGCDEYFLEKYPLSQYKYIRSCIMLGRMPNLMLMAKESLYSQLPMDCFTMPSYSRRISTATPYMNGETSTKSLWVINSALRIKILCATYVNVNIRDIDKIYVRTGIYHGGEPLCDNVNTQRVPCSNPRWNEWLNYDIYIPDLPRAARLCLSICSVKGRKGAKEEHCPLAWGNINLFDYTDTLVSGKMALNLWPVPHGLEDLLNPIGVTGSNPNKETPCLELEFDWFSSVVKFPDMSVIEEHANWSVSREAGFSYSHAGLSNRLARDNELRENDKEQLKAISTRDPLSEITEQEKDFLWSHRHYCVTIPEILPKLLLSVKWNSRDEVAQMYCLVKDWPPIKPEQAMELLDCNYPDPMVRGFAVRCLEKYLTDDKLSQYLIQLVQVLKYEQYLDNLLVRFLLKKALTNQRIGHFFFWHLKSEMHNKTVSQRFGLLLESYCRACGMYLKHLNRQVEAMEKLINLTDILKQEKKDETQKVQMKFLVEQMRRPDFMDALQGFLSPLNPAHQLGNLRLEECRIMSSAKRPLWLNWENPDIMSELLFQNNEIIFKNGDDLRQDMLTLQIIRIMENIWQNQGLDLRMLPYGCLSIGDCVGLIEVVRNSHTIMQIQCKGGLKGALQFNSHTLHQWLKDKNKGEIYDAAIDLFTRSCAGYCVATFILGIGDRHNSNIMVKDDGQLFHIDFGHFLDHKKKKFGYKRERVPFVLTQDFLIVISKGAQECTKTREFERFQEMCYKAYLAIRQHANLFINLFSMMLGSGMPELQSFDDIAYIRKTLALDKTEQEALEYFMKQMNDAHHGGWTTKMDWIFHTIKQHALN
T1 sequence (P48736 144-1102 limits assumed): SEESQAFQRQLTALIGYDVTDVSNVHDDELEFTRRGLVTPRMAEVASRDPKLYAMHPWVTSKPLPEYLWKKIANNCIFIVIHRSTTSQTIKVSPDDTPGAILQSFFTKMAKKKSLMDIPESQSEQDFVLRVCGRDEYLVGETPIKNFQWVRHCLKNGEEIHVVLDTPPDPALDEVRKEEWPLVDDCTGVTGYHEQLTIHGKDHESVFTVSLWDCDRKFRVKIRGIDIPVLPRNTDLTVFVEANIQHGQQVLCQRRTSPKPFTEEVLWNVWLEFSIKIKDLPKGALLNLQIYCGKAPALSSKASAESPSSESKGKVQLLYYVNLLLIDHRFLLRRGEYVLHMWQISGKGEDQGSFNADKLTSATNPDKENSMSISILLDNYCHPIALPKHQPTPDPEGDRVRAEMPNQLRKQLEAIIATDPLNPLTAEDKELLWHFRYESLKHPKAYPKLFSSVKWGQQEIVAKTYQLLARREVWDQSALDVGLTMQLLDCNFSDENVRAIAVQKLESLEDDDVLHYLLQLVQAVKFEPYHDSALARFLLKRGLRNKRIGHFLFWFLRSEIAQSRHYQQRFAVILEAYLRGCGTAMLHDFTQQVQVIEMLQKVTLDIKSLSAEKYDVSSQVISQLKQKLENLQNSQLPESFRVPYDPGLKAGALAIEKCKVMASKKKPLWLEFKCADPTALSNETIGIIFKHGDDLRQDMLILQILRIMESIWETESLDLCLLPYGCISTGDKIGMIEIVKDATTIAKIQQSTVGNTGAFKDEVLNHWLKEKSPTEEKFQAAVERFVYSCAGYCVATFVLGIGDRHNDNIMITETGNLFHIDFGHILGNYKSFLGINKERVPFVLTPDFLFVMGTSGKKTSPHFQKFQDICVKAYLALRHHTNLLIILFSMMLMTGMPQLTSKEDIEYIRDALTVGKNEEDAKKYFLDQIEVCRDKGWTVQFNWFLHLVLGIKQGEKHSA

| SMILES | solubility [1] [µg/mL] | Papp A→B [2] [×10⁻⁶ cm/s] | pIC50 [3] | pIC50 [4] |
| --- | --- | --- | --- | --- |
| CCn1cc(-n2c(=O)n(C)c3cnc4ccc(-c5ccc(OC)c(OC)c5)cc4c32)c(C)n1 [Example 1.6, 8-(3,4-Dimethoxy-phenyl)-1-(1-ethyl-3-methyl-1H-pyrazol-4-yl)-3-methyl-1,3-dihydro-imidazo[4,5-c]quinolin-2-one] | 65 (≈ 147 µM) | 31.6 | 6.80 | 8.10 |
| COc1ccc(-c2ccc3ncc4c(c3c2)n(-c2cn(C)nc2C)c(=O)n4C)cn1 [Example 2.5, 1-(1,3-Dimethyl-1H-pyrazol-4-yl)-8-(6-methoxy-pyridin-3-yl)-3-methyl-1,3-dihydro-imidazo[4,5-c]quinolin-2-one] | 13 (≈ 32.5 µM) | 38.4 | 6.41 | 7.77 |
| CCn1cc(-n2c(=O)n(C)c3cnc4ccc(-c5ccc(OC)nc5)cc4c32)c(C)n1 [Example 2.7, 1-(1-Ethyl-3-methyl-1H-pyrazol-4-yl)-8-(6-methoxy-pyridin-3-yl)-3-methyl-1,3-dihydro-imidazo[4,5-c]quinolin-2-one] | 3 (≈ 7.24 µM) | 21.5 | 6.66 | 7.62 |
| CCOc1ccc(-c2ccc3ncc4c(c3c2)n(-c2c(C)nn(C)c2C)c(=O)n4C)cn1 [Example 3.3, 8-(6-Ethoxy-pyridin-3-yl)-3-methyl-1-(1,3,5-trimethyl-1H-pyrazol-4-yl)-1,3-dihydro-imidazo[4,5-c]quinolin-2-one] | 104 (≈ 243 µM) | 21 | 6.51 | 6.84 |
| CCOc1ccc(-c2ccc3ncc4c(c3c2)n(-c2cn(C(C)C)nc2C)c(=O)n4C)cn1 [Example 3.7, 8-(6-Ethoxy-pyridin-3-yl)-1-(1-isopropyl-3-methyl-1H-pyrazol-4-yl)-3-methyl-1,3-dihydro-imidazo[4,5-c]quinolin-2-one] | 3 (≈ 6.78 µM) | 27.8 | 6.52 | 7.21 |
| CCOc1ccc(-c2ccc3ncc4c(c3c2)n(-c2cn(CC(=O)N(C)C)nc2C)c(=O)n4C)cn1 [Example 3.9, 2-{4-[8-(6-Ethoxy-pyridin-3-yl)-3-methyl-2-oxo-2,3-dihydro-imidazo[4,5-c]quinolin-1-yl]-3-methyl-pyrazol-1-yl}-N,N-dimethyl-acetamide] | 65 (≈ 134 µM) | 14.8 |  | 7.68 |
| Cc1nn(C)cc1-n1c(=O)n(C)c2cnc3ccc(-c4ccc(N(C)C)nc4)cc3c21 [Example 4.5, 8-(6-Dimethylamino-pyridin-3-yl)-1-(1,3-dimethyl-1H-pyrazol-4-yl)-3-methyl-1,3-dihydro-imidazo[4,5-c]quinolin-2-one] | 7 (≈ 16.9 µM) | 16.1 | 6.53 | 7.64 |
| Cc1nn(C)cc1-n1c(=O)n(C)c2cnc3ccc(-c4cccc(S(=O)(=O)N5CCCC5)c4)cc3c21 [Example 44, 1-(1,3-Dimethyl-1H-pyrazol-4-yl)-3-methyl-8-[3-(pyrrolidine-1-sulfonyl)-phenyl]-1,3-dihydro-imidazo[4,5-c]quinolin-2-one] | 8 (≈ 15.9 µM) |  | 6.63 | 7.15 |
| Cc1nn(C)cc1-n1c(=O)n(C)c2cnc3ccc(-c4ccc(-n5cccn5)cc4)cc3c21 [Example 51.1, 1-(1,3-Dimethyl-1H-pyrazol-4-yl)-3-methyl-8-(4-pyrazol-1-yl-phenyl)-1,3-dihydro-imidazo[4,5-c]quinolin-2-one] | 5 (≈ 11.5 µM) |  | 6.67 | 7.64 |
| CCOc1cncc(-c2ccc3ncc4c(c3c2)n(-c2cn(CC(=O)N(C)C)nc2C)c(=O)n4C)c1 [Example 56.2, 2-{4-[8-(5-Ethoxy-pyridin-3-yl)-3-methyl-2-oxo-2,3-dihydro-imidazo[4,5-c]quinolin-1-yl]-3-methyl-pyrazol-1-yl}-N,N-dimethyl-acetamide] | > 486 |  | 6.70 | 7.60 |
| CCOc1ncc(-c2ccc3ncc4c(c3c2)n(-c2cn(C)nc2C)c(=O)n4C)cc1N(C)C(C)=O [Example 63, N-{5-[1-(1,3-Dimethyl-1H-pyrazol-4-yl)-3-methyl-2-oxo-2,3-dihydro-1H-imidazo[4,5-c]quinolin-8-yl]-2-ethoxy-pyridin-3-yl}-N-methyl-acetamide] | > 486 |  | 6.09 | 7.04 |
| Cc1ncc(-c2ccc3ncc4c(c3c2)n(-c2cn(C)nc2C)c(=O)n4C)cc1NS(C)(=O)=O [Example 76, N-{5-[1-(1,3-Dimethyl-1H-pyrazol-4-yl)-3-methyl-2-oxo-2,3-dihydro-1H-imidazo[4,5-c]quinolin-8-yl]-2-methyl-pyridin-3-yl}-methanesulfonamide] | 13 (≈ 27.2 µM) |  | 7.02 | 8.22 |
| CCNc1cc(-c2ccc3ncc4c(c3c2)n(-c2cn(C)nc2Cl)c(=O)n4C)cnc1C [Example 87.2, 1-(3-Chloro-1-methyl-1H-pyrazol-4-yl)-8-(5-ethylamino-6-methyl-pyridin-3-yl)-3-methyl-1,3-dihydro-imidazo[4,5-c]quinolin-2-one] | 222 (≈ 496 µM) | 29.9 |  | 7.52 |
| COC(=O)c1ccc(-c2ccc3ncc4c(c3c2)n(-c2cn(C)nc2C)c(=O)n4C)cn1 [Example 100, 5-[1-(1,3-Dimethyl-1H-pyrazol-4-yl)-3-methyl-2-oxo-2,3-dihydro-1H-imidazo[4,5-c]quinolin-8-yl]-pyridine-2-carboxylic acid methyl ester] | 12 (≈ 28 µM) |  | 6.54 | 7.74 |
| COCc1ccc(-c2ccc3ncc4c(c3c2)n(-c2cn(C(C)C)nc2C)c(=O)n4C)cn1 [Example 105, 1-(1-Isopropyl-3-methyl-1H-pyrazol-4-yl)-8-(6-methoxymethyl-pyridin-3-yl)-3-methyl-1,3-dihydro-imidazo[4,5-c]quinolin-2-one] | > 443 |  | 6.51 | 6.96 |
| Cc1nn(C)cc1-n1c(=O)n(C)c2cnc3ccc(-c4ccc(OCCCO)nc4)cc3c21 [Example 108, 1-(1,3-Dimethyl-1H-pyrazol-4-yl)-8-[6-(3-hydroxy-propoxy)-pyridin-3-yl]-3-methyl-1,3-dihydro-imidazo[4,5-c]quinolin-2-one] | 32 (≈ 72 µM) |  | 6.27 | 6.88 |
| COc1ccc(-c2ccc3ncc4[nH]c(=O)n(-c5cn(C)nc5C)c4c3c2)cn1 [Example 109, 1-(1,3-Dimethyl-1H-pyrazol-4-yl)-8-(6-methoxy-pyridin-3-yl)-1,3-dihydro-imidazo[4,5-c]quinolin-2-one] | 3 (≈ 7.76 µM) |  | 6.54 | 7.92 |
| Cc1nn(C)cc1-n1c(=O)n(C)c2cnc3ccc(-c4cnc5c(ccn5C)c4)cc3c21 [Example 116, 1-(1,3-Dimethyl-1H-pyrazol-4-yl)-3-methyl-8-(1-methyl-1H-pyrrolo[2,3-b]pyridin-5-yl)-1,3-dihydro-imidazo[4,5-c]quinolin-2-one] | 3 (≈ 7.08 µM) |  | 6.63 | 7.92 |
| CNC(=O)c1cc(-c2ccc3ncc4c(c3c2)n(-c2cn(C)nc2C)c(=O)n4C)cnc1OC [Example 125.1, 5-[1-(1,3-Dimethyl-1H-pyrazol-4-yl)-3-methyl-2-oxo-2,3-dihydro-1H-imidazo[4,5-c]quinolin-8-yl]-2-methoxy-N-methyl-nicotinamide] | 6 (≈ 13.1 µM) |  | 6.44 | 7.55 |
| COc1ncc(-c2ccc3ncc4c(c3c2)n(-c2cn(C)nc2C)c(=O)n4C)cc1N [Example 127, 8-(5-Amino-6-methoxy-pyridin-3-yl)-1-(1,3-dimethyl-1H-pyrazol-4-yl)-3-methyl-1,3-dihydro-imidazo[4,5-c]quinolin-2-one] | 386 (≈ 929 µM) |  | 6.92 | 7.70 |
| CCNc1cc(-c2ccc3ncc4c(c3c2)n(-c2cn(CC)nc2C)c(=O)n4C)cnc1CO [Example 155.2, 8-(5-Ethylamino-6-hydroxymethyl-pyridin-3-yl)-1-(1-ethyl-3-methyl-1H-pyrazol-4-yl)-3-methyl-1,3-dihydro-imidazo[4,5-c]quinolin-2-one] | > 458 | 10.9 |  | 7.85 |
| Cc1nn(C)cc1-n1c(=O)n(C)c2cnc3ccc(-c4cncc(N5CCOCC5)c4)cc3c21 [Example 175.1, 1-(1,3-Dimethyl-1H-pyrazol-4-yl)-3-methyl-8-(5-morpholin-4-yl-pyridin-3-yl)-1,3-dihydro-imidazo[4,5-c]quinolin-2-one] | 35 (≈ 76.8 µM) | 7.8 |  | 7.18 |
| Cc1nn(C)cc1-n1c(=O)n(C)c2cnc3ccc(-c4cncc(N5CCC5)c4)cc3c21 [Example 179, 8-(5-Azetidin-1-yl-pyridin-3-yl)-1-(1,3-dimethyl-1H-pyrazol-4-yl)-3-methyl-1,3-dihydro-imidazo[4,5-c]quinolin-2-one] | 28 (≈ 65.8 µM) | 16 |  | 7.41 |
